Data taken from the METLIN SMRT retention time set (Domingo-Almenara et al. 2019).

Experiment: gradient 5% acetonitrile 3 min, to 50% in 2 min, to 85% in 15 min, held 3 min, 100 µL/min
Settings: column: Zorbax Extend-C18 2.1 x 50 mm; eluents: water / acetonitrile, 0.1% formic acid
Summary of the method: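 Pure standards were analyzed in mixtures of ~100 molecules using HPLC coupled to a quadrupole time-of-flight mass spectrometer, in both positive and negative ionization mode. Separation used a Zorbax Extend-C18 column (2.1 × 50 mm, 1.8 μm) at 100 μL/min, with water and acetonitrile each containing 0.1% formic acid. Dead and dwell volumes were 40 μL and 900 μL, and data were collected over 3 months. Retention time was read from computationally picked adduct peaks, each inspected manually.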

Structure (SMILES)	RP-LC retention time
Cc1oc(-c2[nH]ncc2C(=O)N2CCCC2)cc1S(=O)(=O)NCc1ccco1	651 s
Cn1c(SCc2ccc([N+](=O)[O-])cc2)nnc1-c1ccc2c(c1)OCO2	721 s
COc1ccc(N2CCN(c3cc(C(=O)O)c4cc(NC(C)=O)ccc4n3)CC2)cc1	599 s
COc1ccc(OC)c(Nc2c(C(=O)N3CCCC3)cnc3nc(C)ccc23)c1	601 s
COc1ccc(CN2C(=O)CC(c3ccc(OC)cc3)CC2=O)cc1	965 s
CC(C)NC(=O)C1CCCN(c2nc3ncn(CC(=O)NC4CCCC4)c(=O)c3s2)C1 (stereo unspecified)	1210 s
Cc1ccc(C(=O)N2CC=C(C(=O)NC3CC3)CC2)cc1	847 s
c1ccc2c(Oc3nc(Nc4ccc(N5CCOCC5)cc4)c4ncn(C5CCCCC5)c4n3)cccc2c1	1180 s
COc1ccc(-c2noc(C3CCCN3C(=O)c3cc(F)cc(F)c3)n2)cc1 (stereo unspecified)	1020 s
CCCn1cnc2ccc(-c3noc(Cc4cccs4)n3)cc21	750 s
O=C(c1cc2ccccc2[nH]1)N1CCCC1	794 s
CCCCn1c(SCc2nc(-c3ccc(OCC)cc3)no2)nc2cc3c(cc2c1=O)OCO3	1390 s
Cc1ccc(C(=O)N2CCC3(CC2)N=C(c2ccc(Cl)cc2)NO3)cc1	895 s
Cc1cccc(NC(=O)c2cc(C)n3nccc3n2)c1C	995 s
Cc1cc(NC(=O)NCCc2c(C)nn(C)c2C)ccc1Br	705 s
Clc1cccc(-c2noc(Cc3nc(-c4cccs4)cs3)n2)c1	1270 s
COc1cc(C2OC(c3cccnc3)=NN2C(C)=O)cc(OC)c1OC (stereo unspecified)	700 s
O=C(c1ccc(N2C[C@H]3C[C@H](C2)[C@H]2CCCC(=O)N2C3)nc1)N1CCN(c2ncccn2)CC1	567 s
O=C(c1csc(N2CCN(c3ccccc3)CC2)n1)N1CCCCC1	1020 s
Cc1ccc(NC(=O)CSC2=C(C#N)C(c3cccs3)CC(=O)N2)cc1Cl (stereo unspecified)	915 s

Structure (SMILES)	RP-LC retention time
COc1ccc(-c2ncc3c(n2)CCN(S(=O)(=O)c2ccc(Cl)cc2)C3)cc1	1100 s
CCN1CCN(C(=O)CN2C(=O)C3CCCCN3c3ccc(S(=O)(=O)N(CC)CC)cc32)CC1 (stereo unspecified)	670 s
COCCCNC(=O)NCc1cccnc1OC	594 s
COc1ccc(OC)c(CNC(=O)C2CCCN(c3nccnc3Sc3ccc(C)cc3)C2)c1 (stereo unspecified)	1070 s
COc1cc(OC)c(NC(=O)N2CCc3c(c(C(=O)N4CCOCC4)nn3C)C2)cc1Cl	692 s
CCOc1ccc(CC(=O)N2CCc3cc(-c4csc(C)n4)ccc32)cc1	1060 s
O=C(NCCc1ccsc1)C(=O)NCC(F)(F)F	756 s
CCn1cc(CCNS(=O)(=O)CC)c2cccnc21	630 s
COC(=O)c1ccccc1NC(=O)N1CCOc2ccc(C)cc21	1140 s
COCCCNC(=O)C1c2ccccc2C(=O)N(C2CCCCC2)C12CCCCC2 (stereo unspecified)	946 s
CCCCS(=O)CC(CO)NC(=O)/C=C/c1c(C)[nH]c(=O)[nH]c1=O (stereo unspecified)	569 s
Clc1ccc(Cc2nc(-c3cccc(-c4ccn[nH]4)c3)no2)cc1	1010 s
Cc1noc(C2CN(C(=O)Nc3ccc(F)c(Cl)c3)CC23CCOCC3)n1 (stereo unspecified)	783 s
Cc1cccc(NC(=O)N2CCN(c3cc(C)nc(N4CCCC4)n3)CC2)c1	680 s
COCCCNC(=O)C1CCCN(c2ccc(-c3ccc(C)c(C)c3)nn2)C1 (stereo unspecified)	647 s
Cc1ccc(S(=O)(=O)N2C[C@@H](F)C[C@H]2C(=O)N2CCc3ccccc3C2)cc1Cl	1020 s
O=S(=O)(Nc1ccc(F)cc1)c1ccccc1-c1nc(-c2ccccc2)no1	1140 s
CCC(=O)N1c2ccccc2CC1c1nc(C(C)C)no1 (stereo unspecified)	913 s
Cn1cc(S(=O)(=O)N2CCC(C(=O)N3CCCCC3)CC2)cc1C(=O)N1CCCC1	688 s

Results, then the compound that gave them:

RP-LC retention time	Structure (SMILES)
748 s	COc1ccc(-c2cn3cccnc3n2)cc1NC(=O)c1cccc(Br)c1
880 s	Cc1cccc(-n2c(N3CCCC(C(=O)NCc4ccccc4)C3)nc3ccsc3c2=O)c1 (stereo unspecified)
867 s	CC(C)CNC(=O)CCn1c(=O)c2ccccc2n2c(=O)n(Cc3cccc(F)c3)nc12
1050 s	CSc1ccc(CCNC(=O)Cn2nc(-n3cccc3)c3c(C)cc(C)nc32)cc1
795 s	COCCCNC(=O)Cn1nc(C)c2nn(-c3ccc(F)cc3)c(-n3cccc3)c2c1=O
711 s	CCc1ccc(NC(=O)Cn2c(N3CCOCC3)nc(C)cc2=O)cc1
761 s	Cc1nn(C)c(C)c1S(=O)(=O)N1CCN(C(=O)C(C)Oc2ccccc2)CC1 (stereo unspecified)
1050 s	Cc1cccc(NC(=O)Nc2nccn(-c3ccc(Br)cc3)c2=O)c1
859 s	Cc1ccc(-c2cc3n(n2)CCCN(C(=O)CCCC(=O)n2nc(C)c4ccccc42)C3)o1
599 s	CC(C(=O)NCCCN1CCOCC1)n1c2ccccc2c2cnn(C)c(=O)c21 (stereo unspecified)
634 s	Cc1cc(=O)n(CC(=O)Nc2cccc(F)c2)c(N2CCCC2)n1
825 s	CC1CN(C(=O)COc2ccc3ccccc3c2)c2ccccc2NC1=O (stereo unspecified)
663 s	CCc1ccc(CNC(=O)c2ccc3c(c2)N(C)C(=O)C2CCCCN32)cc1 (stereo unspecified)
950 s	O=C(Nc1nnc(Cc2ccc3c(c2)OCCO3)o1)c1sc2ccccc2c1Cl
722 s	Cc1ccc(C)c(CNC(=O)c2ccc(-c3cccnc3)nc2)c1
892 s	COc1ccc(NC(=O)c2nnc(CCCC(=O)NCCc3c[nH]c4ccc(Cl)cc34)s2)cc1
951 s	O=C(c1ccc(F)c(F)c1)N1CCc2nc(-c3ccccc3)ncc2C1
831 s	Cc1cccc(CNc2nnc(-c3nnc(C)o3)c3ccccc23)c1
872 s	Cn1c(=O)c(-c2ccc(C(=O)NCc3ccc4c(c3)OCO4)cc2)nc2cccnc21
764 s	O=C(Nc1cc(-c2ccccc2)nn1CCO)c1ccc2nsnc2c1
858 s	O=C(Cn1c(=O)c(S(=O)(=O)c2ccccc2)cc2ccccc21)NCc1ccccc1
735 s	CCC(C(=O)NCCOc1ccc2nnc(-c3ccc(OC)cc3)n2n1)c1ccccc1 (stereo unspecified)
962 s	COc1ccc(C(C)NC(=O)c2c(C)sc3ccn(CC(C)C)c(=O)c23)cc1 (stereo unspecified)
637 s	O=C(CCc1c(-c2cccc(Cl)c2)nc2ccccn12)NCc1ccco1
833 s	Cc1ccccc1Cn1c(CN2CCC(C(=O)NC(C)Cc3ccco3)CC2)cc2ccccc21 (stereo unspecified)
725 s	CC(C)CC(NC(=O)c1ccccc1)C(=O)Nc1nc2ccccc2[nH]1 (stereo unspecified)
1100 s	Cc1ccc(SCC(=O)Nc2nc(-c3ccccc3)cs2)cc1
